# According to publication PMC12196235, “Enhancing the Pharmacological Properties of Triterpenes Through Acetylation: An Anticancer and Antioxidant Perspective” (Molecules, 2025):
# “And” between values parts separate entries of the source, which are not always exact repeats. Identical values can stand only once.
# Experiments:
# C-6 = settings: ref 47; read-out: anticancer IC50 (C-6); cited from earlier work
# [1] = tested on: A-549 (human lung carcinoma); settings: ref 47; read-out: anticancer IC50 (A-549); cited from earlier work
# [2] = tested on: PC-3 (human prostate carcinoma); assay: MTT assay, PC-3; assay type: cell-based
# [3] = tested on: HeLa, KB, MCF-7, A-549, PC-3 and SKOV-3; assay: MTT assay, summary over the cancer cell lines; assay type: cell-based, human; settings: classification by IC50 (good ≤ 10 μM, moderate 10–30 μM, ref 83)
# Procedure: All the cell lines and mediums were obtained from the American Type Culture Collection (ATCC) supplied by LGC-Standards (Lomianki, Poland). Human cancer cell lines were cultured as follows: HeLa (human cervix carcinoma) and KB (human oral squamous carcinoma) lines were cultured in DMEM (Dulbecco’s Modified Eagle’s Medium); MCF-7 (human breast carcinoma) and A-549 (human lung carcinoma) were cultured in RPMI 1640 medium; PC-3 (human prostate carcinoma) was cultured in F-12K medium; SKOV-3 (human ovarian cystadenocarcinoma) was cultured in McCoy’s modified medium; HDF (human normal dermal fibroblasts) was cultured in Fibroblast Basal Medium. Each medium was supplemented with 10% fetal bovine serum, 1% L- glutamine and 1% penicillin/streptomycin solution. The cell lines were kept in an incubator at 37 °C.
# All the tested cell lines (HeLa, KB, MCF-7, A-549, PC-3, SKOV-3 and HDF) were subjected to MTT assay. In short, this assay is based on the reaction between mitochondria enzymes (dehydrogenases) of tested cell lines and 3-(4,5-dimethylthiazol-2-yl)-2,5-diphenyltetrazolium bromide (MTT). The final product of this reaction gives violet formazan crystals. The number of live cells is proportional to the amount of formazan and is represented by the violet dye reagent. The details of the experiments are given in [19].
# [4] = tested on: SK-N-AS (human neuroblastoma); settings: ref 47; read-out: anticancer IC50 (SK-N-AS); cited from earlier work
# [5] = tested on: HeLa (human cervical epithelioid carcinoma); assay: MTT assay, HeLa; assay type: cell-based
# How it was run: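 MCF-7 and A-549 were grown in RPMI 1640, HeLa in DMEM, and HDF in Fibroblast Basal Medium, each with 10% FBS, 1% L-glutamine and 1% penicillin/streptomycin at 37 °C. Viability was measured by MTT reduction to formazan.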
# [6] = tested on: RPMI-8226 (human multiple myeloma); settings: ref 47; read-out: anticancer IC50 (RPMI-8226); cited from earlier work
# [7] = tested on: P-388 (murine lymphocytic leukemia); settings: ref 49, cited from earlier work
# [8] = tested on: TE-671 (human rhabdomyosarcoma–medulloblastoma); settings: ref 47; read-out: anticancer IC50 (TE-671); cited from earlier work
# [9] = tested on: HPGBM (human glioblastoma multiforme); settings: ref 47; read-out: anticancer IC50 (HPGBM); cited from earlier work
# [10] = tested on: Jurkat 1E.6 (human T cell leukemia); settings: ref 47; read-out: anticancer IC50 (Jurkat 1E.6); cited from earlier work
# [11] = tested on: HT-29 (human colorectal adenocarcinoma); settings: ref 47; read-out: anticancer IC50 (HT-29); cited from earlier work
# PC-3 = assay: Apoptosis assay (Cell Death Detection ELISA Plus), PC-3; assay type: cell-based, human; settings: PC-3, 4 h incubation, enrichment of mono- and oligonucleosomes vs negative control
# Procedure: The induction of apoptosis by tested compounds was determined with Cell Death Detection ELISA Plus from Roche Diagnostics GmbH (Mannheim, Germany).
# Cell Death Detection ELISA Plus is an enzyme immunoassay for determining cytoplasmic histone-associated DNA fragments (mono- and […]) after induced cell death. Cells (10^4) were pipetted into wells of 96-well plates, and test compounds were added at final concentrations of 0.1, 1.0 and 10.0 µg × mL^−1. Cells incubated in the absence of test compounds served as negative controls. After 4 h of incubation, cells were harvested by centrifugation of the plates for 10 min at 200× g. Supernatants were removed carefully, and cell pellets were resuspended in 200 µL of cell lysis buffer and incubated for 30 min at room temperature. After centrifugation of the plates (10 min at 200× g), 20 µL of cell lysates was transferred in duplicate into wells of provided streptavidin-coated microplates. Then, 80 µL of the immunoreagent containing a mixture of anti-histone-biotin monoclonal antibody and anti-DNA-peroxidase monoclonal antibody was added to each well. The microplates were covered with a provided adhesive foil and incubated for 2 h at room temperature. Thereafter, the solution in the wells was removed by tapping the microplate. The wells were rinsed three times with incubation buffer, and 100 µL of substrate (2,2′-azino-bis [3-ethylbenzothiazoline-6-sulphonic acid], ABTS) was added to each well. After 10–20 min, 100 µL of ABTS stop solution was pipetted to each well, and the absorbance was read at 405 nm (test wavelength) and 490 nm (reference wavelength). The apoptotic index was calculated based on the enrichment of mono- and oligonucleosomes according to the following equation:apoptotic index = [{A405(sample) − A490(sample)}/{A405(negative control) − A490(negative control)}]
# CUPRAC antioxidant assay = settings: calculated from Trolox standard curve
# How it was run: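 The CUPRAC reagent was made from 7.5 mM neocuproine, 10 mM CuCl2 and ammonium acetate buffer pH 7.0; the DPPH reagent was a 0.2 mM solution. Both were read spectrophotometrically in plates. Activity is given as % inhibition and as Trolox equivalents from standard curves.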
# [12] = tested on: FTC-238 (human thyroid carcinoma); settings: ref 47; read-out: anticancer IC50 (FTC-238); cited from earlier work
smiles,measurement,setting,value
"C=C(C)[C@@H]1CC[C@]2(CO)CC[C@]3(C)[C@H](CC[C@@H]4[C@@]5(C)CC[C@H](O)C(C)(C)[C@@H]5CC[C@]43C)[C@@H]12 [5a, betulin]",IC50,C-6,5.9 µM
same,IC50,[1],7.4 µM
same,IC50,"[2]; Homo sapiens, MTT assay, PC-3, read-out: IC50 (±SD), PC-3",6.22 µM
same,"Selectivity index (SI), PC-3",[2]; IC50 HDF / IC50 PC-3,2.54
same,cytotoxic activity class,[3],high or moderately high activity
same,IC50,[4],2.5 µM
same,IC50,"[5]; Homo sapiens, MTT assay, HeLa, read-out: IC50 (±SD), HeLa",18.3 µM
same,"Selectivity index (SI), HeLa",[5]; IC50 HDF / IC50 HeLa,0.86
same,IC50,[6],6.4 µM
same,anticancer IC50 (P-388),[7],5.5 µg/mL
same,IC50,[7]; read-out: anticancer IC50 (P-388),12.4 µM
same,IC50,[8],10.3 µM
same,IC50,[9],3.4 µM
same,IC50,[10],6.7 µM
same,IC50,[11],4.3 µM
same,"Apoptotic index (AI), PC-3",PC-3,5.82 (0.03)
same,"Trolox Equivalent, CUPRAC Assay",CUPRAC antioxidant assay,0.299 mg/mL and 0.299 ± 0.00663 mg/mL
same,IC50,[12],6.8 µM
